From patent US20050282818A1, “Ubiquitin ligase inhibitors” (Rigel Pharmaceuticals, Inc., priority 2004, published 2005)
Like-named read-outs stand apart in the source and are kept apart here.

How the values were obtained:
[1] = tested on: H1299 cells; assay: Cell proliferation PAD assay, H1299; assay type: cell-based; details: Homo sapiens, 48 hours
Description: (§1) Cell lines used are available from American Type Culture Collection (ATCC), for example, cell cultures containing A549 (ATCC# CCL-185), HeLa (ATCC# CCL-2), HCT116 ATTC# CCL-247), and H1299 (ATCC# CRL-5803) cells were maintained in T175 flasks following the ATCC recommended media and handling procedures. […] A 20,000 cells/ml solution was made for plating. Cells were plated in black Packard 96 well plates by placing 100 μl per well (2,000 cells per well). […] The definitions of the cell types used are as follows: A549 is lung carcinoma; HI 299 is non-small cell lung carcinoma; HI 155 is non-small cell lung carcinoma; AsPC-1 is pancreatic adenocarcinoma; Caov-3 is ovarian adenocarcinoma; COLO 205 is colorectal adenocarcinoma; DLD-1 colorectal adenocarcinoma; HCT116 is colorectal carcinoma; DU 145 is prostate carcinoma; ES-2 is ovarian clear cell carcinoma; H460 is large cell lung carcinoma; HELA is cervical adenocarcinoma; MIA PaCa-2 is pancreatice carcinoma; OVCAR-3 is ovarian adenocarcinoma; OVCAR8 is ovarian carcinoma; PC3 is prostate adenocarcinoma; SK-OV-3 is ovarian adenocarcinoma; SU86.86 is pancreatic carcinoma; TOV-21G is avarian clear cell carcinoma; U2OS is bone osteosarcoma; is ASPC-I is pancreatic adenocarcinoma; BXPC-3 is pabcreatic adenocarcinoma; HL60 is promyeloblast promyelocytic leukemia; K562 is bone marrow chronic myelogenous leukemia; L1210 is mouse lymphocytic leukemia; MOLT3 is T lymphoblast acute lymphoblastic leukemia; MOLT4 is T lymphoblast acute lymphoblastic leukemia; SW620 is colorectal adenocarcinoma; THP-1 is monocyte acute monocytic leukemia; U937 is histiocytic lymphoma; and UACC-257 is melanoma.
(§2) Compounds and additional media were added 24 hours after cell plating. […] All compound testing was done in duplicate using 6.3 fold dilutions starting with 10 mM. […] Taxol and at least one additional control were run on all plates. Three microliters of the compound master plate were added to deep well blocks containing 750 μl of RPMI media. One hundred microliters were transferred from the compound/media deep well blocks to the plated cells resulting in a 500 fold dilution of the compounds. Cells were grown at 37° C., 5% CO2 for 48 hours.
(§3) Cells to be analyzed by photography were fixed and stained. One hundred microliters of media were removed and 100 μl of 9.3% formamide was added to each well. Plates were left on the benchtop for 45 minutes. A staining solution containing 1.55 μl of 1 mg/ml DAPI added to 18.75 ml PBS was warmed for 15 minutes at 37° C. The cells were aspirated prior to washing with 100 μl of PBS. Seventy microliters of PBS were aspirated and 170 μl of the DAPI solution were added to each well of fixed cells. Plates were left at room temperature for one hour then aspirated and washed twice with 100 μl of PBS. The stained cells were left at 4° C. for a minimum of 16 hours before photographic analysis with Array Scan II (Cellomics). Analysis of the photographic images to determine numbers of live cells (proliferation), apoptotic cells and dead cells, were according to the methods described in U.S. Utility patent application Ser. No. 10/652,440, which incorporated herein in its entirety.

[2] = molecular target: T1, TRAF6/Uev1A/Ubc13 (Homo sapiens, UniProt Q9Y4K3); assay: TRAF6/Uev1A/Ubc13 plate-based ubiquitin ligase assay; assay type: biochemical
T1 sequence (Q9Y4K3 1-522): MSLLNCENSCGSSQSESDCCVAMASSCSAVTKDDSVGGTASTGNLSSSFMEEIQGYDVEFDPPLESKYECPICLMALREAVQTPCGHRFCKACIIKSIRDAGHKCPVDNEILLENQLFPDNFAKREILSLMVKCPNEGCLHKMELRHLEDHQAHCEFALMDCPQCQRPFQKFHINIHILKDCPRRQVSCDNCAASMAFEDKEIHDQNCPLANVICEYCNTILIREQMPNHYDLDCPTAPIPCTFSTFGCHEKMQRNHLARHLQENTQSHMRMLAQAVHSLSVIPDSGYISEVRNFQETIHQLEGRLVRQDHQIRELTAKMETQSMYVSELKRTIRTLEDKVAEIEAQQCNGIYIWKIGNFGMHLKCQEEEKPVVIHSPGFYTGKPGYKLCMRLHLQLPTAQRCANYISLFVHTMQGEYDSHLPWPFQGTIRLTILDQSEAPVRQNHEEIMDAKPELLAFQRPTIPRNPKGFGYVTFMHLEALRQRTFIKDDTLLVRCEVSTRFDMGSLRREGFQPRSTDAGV
Description: For the assays described below, the TRAF6/Uev1A/UBC13 assay is the biochemical plate-based assay of TRAF6 ligase activity using Ubc13 as the E2 enzyme. The gel-based assay is the biochemical solution-based TRAF6 ligase assay (by SDS-PAGE and Western blot) to confirm the plate-based ELISA assay. The APC assay is an assay which is another E3 ligase (APC2/APC11) biochemical assay.
A 96-well Ni-plate was blocked with 100 μl of 1% casein in PBS for 1 hour at room temperature. The plates were then washed three times with 200 μl of 1×PBS and 80 μl of a reaction buffer was added per well which contained 50 ng of Flag-ubiquitin, 50 ng of His-ubiquitin, 62.5 mM Tris pH 7.5, 6.25 mM MgCl2, 1.0 mM DTT, and 2 μM ATP. To each well was added 10 μl of a solution of the compound in DMSO. The reaction was started by adding 10 μl of a solution consisting of 10 ng human E1, 25 ng each of Uev1a and Ubc13, and 100 ng TRAF6 in the reaction buffer. The plates were shaken for 10 minutes and incubate at room temperature for 1 hour. After the incubation, the plates were washed three times with 200 μl 1×PBS in 0.05% Tween and 100 μl of an antibody mix consisting of anti-Flag (1:30,000 dilution; Sigma F-3165) and anti-Mouse IgG-HRP (1/150,000 dilution; Jackson Immunoresearch #115-035-146) in 1×PBS with 0.25% BSA. The plates were then incubated for another 1 hour at room temperature, and after incubation the plate was washed three times with 200 μl 1×PBS with 0.05% Tween. The amount of ubiquitin was measured by adding 100 μl of Lumino substrate (1:5 dilution) and reading the luminescence with a fluorimeter.
Table 2 below illustrates the inhibitory activity of the compounds of the invention determined by the TRAF6/Uev1A/Ubc13 assay as well as in the ICAM, APC and the ROC1/CUL1 Ubiquitin Ligase Assay (SCF Assay). The IC50 values were determined using a various concentrations of the compounds.

[3] = tested on: A549 cells; assay: Cell proliferation PAD assay, A549; assay type: cell-based; details: Homo sapiens, 48 hours
Description: as §1, §2, §3

[4] = NCI-H1299, 6pt, read-out: H1299 6pt
[5] = NCI-H1299, 3pt, read-out: H1299 3pt

| Compound | IC50 [1, 4] | IC50 [2] | IC50 ([3]; 6pt, read-out: A549 6pt) | IC50 [1, 5] | IC50 ([3]; 3pt, read-out: A549 3pt) |
| --- | --- | --- | --- | --- | --- |
| COC(=O)c1ccc(Nc2ccc3nonc3c2S(=O)(=O)Nc2ccc(C(=O)OC)cc2)cc1 [compound 10, methyl 4-{[(5-{[4-(methoxycarbonyl)phenyl]amino}-2,1,3-benzoxadiazol-4-yl)sulfonyl]amino}benzoate] | ≥ 20 µM | ≥ 20 µM | ≥ 20 µM | – | – |
| O=S(=O)(Nc1cccc2cnccc12)c1cccc2nonc12 [compound 12, N-isoquinolin-5-yl-2,1,3-benzoxadiazole-4-sulfonamide] | – | ≥ 20 µM | – | ≥ 20 µM | ≥ 20 µM |
| Cc1ccc(F)cc1NS(=O)(=O)c1cccc2nonc12 [compound 13, N-(5-fluoro-2-methylphenyl)-2,1,3-benzoxadiazole-4-sulfonamide] | – | ≥ 20 µM | – | ≥ 20 µM | ≥ 20 µM |
| O=S(=O)(Nc1ccc(Oc2ncc(C(F)(F)F)cc2Cl)cc1)c1cccc2nonc12 [compound 62, N-(4-{[3-chloro-5-(trifluoromethyl)pyridin-2-yl]oxy}phenyl)-2,1,3-benzoxadiazole-4-sulfonamide] | – | ≥ 20 µM | – | ≥ 20 µM | ≥ 20 µM |
| CC(C)(C)OC(=O)N1CCN(c2ccc([N+](=O)[O-])c3nonc23)CC1 [compound 72, Tert-butyl 4-(7-nitro-2,1,3-benzoxadiazol-4-yl)piperazine-1-carboxylate] | – | ≥ 20 µM | – | ≥ 20 µM | ≥ 20 µM |
| O=S(=O)(Nc1cccc2nonc12)c1ccc(Oc2ccncc2)cc1 [compound 80, N-2,1,3-benzoxadiazol-4-yl-4-(pyridin-4-yloxy)benzenesulfonamide] | – | ≥ 20 µM | – | ≥ 20 µM | ≥ 20 µM |
| O=[N+]([O-])c1ccc(N2CCN(CCN3CCOCC3)CC2)c2nonc12 [compound 85, 4-[4-(2-morpholin-4-ylethyl)piperazin-1-yl]-7-nitro-2,1,3-benzoxadiazole] | – | ≥ 20 µM | – | ≥ 20 µM | ≥ 20 µM |
| O=S(=O)(Nc1cccc2nonc12)c1ccc(Oc2cccnc2)cc1 [compound 86, N-2,1,3-benzoxadiazol-4-yl-4-(pyridin-3-yloxy)benzenesulfonamide] | – | ≥ 20 µM | – | ≥ 20 µM | ≥ 20 µM |
| O=S(=O)(Nc1cccc2nonc12)c1ccc(Oc2ccccc2)cn1 [compound 87, N-2,1,3-benzoxadiazol-4-yl-5-phenoxypyridine-2-sulfonamide] | – | ≥ 20 µM | – | ≥ 20 µM | ≥ 20 µM |
| CC(=O)N1CCN(c2ccc([N+](=O)[O-])c3nonc23)CC1 [compound 88, 4-(4-acetylpiperazin-1-yl)-7-nitro-2,1,3-benzoxadiazole] | – | ≥ 20 µM | – | ≥ 20 µM | ≥ 20 µM |
| O=S(=O)(Nc1ccc(Oc2ncccn2)c(Cl)c1)c1cccc2nonc12 [compound 91, N-[3-chloro-4-(pyrimidin-2-yloxy)phenyl]-2,1,3-benzoxadiazole-4-sulfonamide] | – | ≥ 20 µM | – | ≥ 20 µM | ≥ 20 µM |
| O=S(=O)(Nc1cccc2nonc12)c1ccc(Oc2ccccc2)cc1 [compound 93, N-2,1,3-benzoxadiazol-4-yl-4-phenoxybenzenesulfonamide] | ≥ 20 µM | 1 to 20 µM | ≥ 20 µM | – | – |
| O=[N+]([O-])c1ccc(Oc2ccc(NS(=O)(=O)c3cccc4nonc34)cc2)cc1 [compound 101, N-[4-(4-nitrophenoxy)phenyl]-2,1,3-benzoxadiazole-4-sulfonamide] | – | ≥ 20 µM | – | ≥ 20 µM | ≥ 20 µM |
| O=S(=O)(Nc1ccc(Oc2ccccc2)cc1)c1cccc2nonc12 [compound 102, N-(4-phenoxyphenyl)-2,1,3-benzoxadiazole-4-sulfonamide] | – | ≥ 20 µM | – | ≥ 20 µM | ≥ 20 µM |
| Cc1cc(C)cc(-c2cc(Cl)c3nonc3c2)c1 [compound 322, 4-Chloro-6-[3,5-(dimethyl)phenyl]-2,1,3-benzoxadiazole] | ≥ 20 µM | – | ≥ 20 µM | – | – |
| Cc1cc(C)cc(-c2cc(-c3cc(C)cc(C)c3)c3nonc3c2)c1 [compound 323, 4,6-bis[3,5-(dimethyl)phenyl]-2,1,3-benzoxadiazole] | ≥ 20 µM | – | ≥ 20 µM | – | – |
| Fc1cc(F)cc(-c2cc(Cl)c3nonc3c2)c1 [compound 324, 4-Chloro-6-[3,5-(difluoro)phenyl]-2,1,3-benzoxadiazole] | ≥ 20 µM | – | ≥ 20 µM | – | – |
| FC(F)(F)c1cccc(-c2cc(Cl)c3nonc3c2)c1 [compound 325, 4-Chloro-6-[3-(trifluoromethyl)phenyl]-2,1,3-benzoxadiazole] | ≥ 20 µM | – | ≥ 20 µM | – | – |
| Cc1cccc(-c2cc(Cl)c3nonc3c2)c1 [compound 326, 4-Chloro-6-(3-methylphenyl)-2,1,3-benzoxadiazole] | ≥ 20 µM | – | ≥ 20 µM | – | – |
| FC(F)(F)c1ccc(-c2cc(Cl)c3nonc3c2)cc1 [compound 327, 4-Chloro-6-[4-(trifluoromethyl)phenyl]-2,1,3-benzoxadiazole] | ≥ 20 µM | – | ≥ 20 µM | – | – |
| COc1cccc(-c2cc(Cl)c3nonc3c2)c1 [compound 328, 4-Chloro-6-(3-methoxyphenyl)-2,1,3-benzoxadiazole] | ≥ 20 µM | – | ≥ 20 µM | – | – |
| CC(C)(C)c1ccc(-c2cc(Cl)c3nonc3c2)cc1 [compound 329, 4-Chloro-6-(4-(tert-butyl)phenyl)-2,1,3-benzoxadiazole] | ≥ 20 µM | – | ≥ 20 µM | – | – |
